Results from US20150284381A1, “AMINO-PYRIDINE-CONTAINING SPLEEN TYROSINE KINASE (SYK) INHIBITORS” (MERCK SHARP & DOHME CORP., priority 2012, published 2015).

Biological target: T1, recombinant human GST-Syk (Homo sapiens, UniProt P43405)
T1 construct: purchased Carna Biosciences 08-176
Experiment: Homogeneous Time-Resolved Fluorescence (HTRF) assay for the recombinant human Syk enzyme
Type: biochemical
Settings: recombinant human GST-Syk 5 pM, ATP 25 μM, 45 min at rt, read-out: rhSyk
Protocol: Homogeneous Time-Resolved Fluorescence (HTRF) Assay for the Recombinant Human Syk Enzyme
A recombinant GST-hSyk fusion protein was used to measure potency of compounds to inhibit human Syk activity. The recombinant human GST-Syk (Carna Biosciences #08-176) (5 pM nominal concentration) was incubated with various concentrations of the inhibitor diluted in DMSO (0.1% final concentration) for 10 minutes at rt in 15 mM Tris-HCl (pH 7.5), 0.01% tween 20, 2 mM DTT in 384 well plate format. To initiate the reaction the biotinylated substrate peptide (250 nM final concentration) that contains the phosphorylation site for Syk was added with magnesium (5 mM final concentration) and ATP (25 μM final concentration). Final volume of the reaction was 10 μL. Phosphorylation of the peptide was allowed to proceed for 45′ at rt. To quench the reaction and detect the phosphorylated product, 2 nM of a Europium-anti-phosphotyrosine antibody (Perkin Elmer #AD0161) and 70 nM SA-APC (Perkin-Elmer #CR130-100) were added together in 15 mM Tris pH 7.5, 40 mM EDTA, 0.01% tween 20. Final volume of the quenching solution was 10 μL. The resulting HTRF signal was measured after 30 minutes on a EnVision (Perkin-Elmer) reader using a time-resolved fluorescence protocol. IC50 was determined following 10-dose titration (10 μM to 0.508 nM) and four parameter logistic curve fitting using an assay data analyzer.

Row | IC50 [nM] | SMILES
1 | 0.05 | Cc1cc(Nc2cc(C(C)F)ccn2)nc(-c2cnc([C@@]3(O)CCc4cc(C(=O)O)ccc43)s2)c1 (single isomer, unassigned) [Example 2K, (1R)-1-[5-(6-{[4-((R or S)-1-fluoroethyl)pyridin-2-yl]amino}-4-methylpyridin-2-yl)-1,3-thiazol-2-yl]-1-hydroxy-2,3-dihydro-1H-indene-5-carboxylic acid]
2 | 0.04 | Cc1cc(Nc2cc(C(F)(F)F)ccn2)nc(-c2cnc(C3(O)CCCc4c3ccc(C(=O)O)c4F)s2)c1 (single isomer, unassigned) [Example 1J, (R or S)-1-fluoro-5-hydroxy-5-[5-(4-methyl-6-{[4-(trifluoromethyl)pyridin-2-yl]amino}pyridin-2-yl)-1,3-thiazol-2-yl]-5,6,7,8-tetrahydronaphthalene-2-carboxylic acid]
3 | 0.39 | Cc1cc(Nc2cc(C(F)(F)F)ccn2)nc(-c2cnc(C3(O)CCc4cc(C(=O)O)c(F)cc43)s2)c1 (single isomer, unassigned) [Example 1C, (R or S)-6-fluoro-1-hydroxy-1-[5-(4-methyl-6-{[4-(trifluoromethyl)pyridin-2-yl]amino}pyridin-2-yl)-1,3-thiazol-2-yl]-2,3-dihydro-1H-indene-5-carboxylic acid]
4 | 0.002 | Cc1cc(Nc2cc(C3CC3)ccn2)nc(-c2cnc(C3(O)CCCc4cc(C(=O)O)c(F)cc43)s2)c1 (single isomer, unassigned) [Example 1H, (R or S)-5-(5-{6-[(4-cyclopropylpyridin-2-yl)amino]-4-methylpyridin-2-yl}-1,3-thiazol-2-yl)-3-fluoro-5-hydroxy-5,6,7,8-tetrahydronaphthalene-2-carboxylic acid]
5 | 2 | Cc1cc(Nc2cc(C3CCC(C)CC3)ccn2)nc(-c2cnc([C@@]3(O)CCCc4cc(C(=O)O)ccc43)s2)c1 (stereo partly drawn) [Example 3B, (5R)-5-hydroxy-5-[5-(4-methyl-6-{[4-(4-methylcyclohexyl)pyridin-2-yl]amino}pyridin-2-yl)-1,3-thiazol-2-yl]-5,6,7,8-tetrahydronaphthalene-2-carboxylic acid]
6 | 0.55 | Cc1cc(Nc2cc(C3CC3)ccn2)nc(-c2cnc([C@@]3(O)CCc4cc(C(=O)O)ccc43)s2)c1 [Example 2C, (1R)-1-(5-{6-[(4-cyclopropylpyridin-2-yl)amino]-4-methylpyridin-2-yl}-1,3-thiazol-2-yl)-1-hydroxy-2,3-dihydro-1H-indene-5-carboxylic acid]
7 | 0.1 | Cc1cc(Nc2cc(C(C)F)ccn2)nc(-c2cnc(C3(O)CCCc4cc(C(=O)O)ccc43)s2)c1 (single isomer, unassigned) [Example 8B, 5-(5-(6-((4-(1-Fluoroethyl)pyridin-2-yl)amino)-4-methylpyridin-2-yl)thiazol-2-yl)-5-hydroxy-5,6,7,8-tetrahydronaphthalene-2-carboxylic acid]
8 | 1.51 | Cc1cc(Nc2cc(C(F)(F)F)ccn2)nc(-c2cnc(C3(O)CCCc4cc(C(=O)O)c(Br)cc43)s2)c1 (single isomer, unassigned) [Example 1A, 3-Bromo-5-hydroxy-5-[5-(4-methyl-6-{[4-(trifluoromethyl)pyridin-2-yl]amino}pyridin-2-yl)-1,3-thiazol-2-yl]-5,6,7,8-tetrahydronaphthalene-2-carboxylic acid]
9 | 0.73 | Cc1cc(Nc2cc(-c3c[nH]nn3)ccn2)nc(-c2cnc([C@@]3(O)CCCc4cc(C(=O)N(C)C)ccc43)s2)c1 [Example 6A, (5R)-5-hydroxy-N,N-dimethyl-5-[5-(4-methyl-6-{[4-(1H-1,2,3-triazol-4-yl)pyridin-2-yl]amino}pyridin-2-yl)-1,3-thiazol-2-yl]-5,6,7,8-tetrahydronaphthalene-2-carboxamide]
10 | 0.1 | Cc1cc(Nc2cc(C(C)F)ccn2)nc(-c2cnc(C3(O)CCCc4cc(C(=O)O)ccc43)s2)c1 (single isomer, unassigned) [Example 8D, 5-(5-(6-((4-(1-Fluoroethyl)pyridin-2-yl)amino)-4-methylpyridin-2-yl)thiazol-2-yl)-5-hydroxy-5,6,7,8-tetrahydronaphthalene-2-carboxylic acid]
11 | 1.04 | Cc1cc(Nc2cc(-c3cn[nH]c3)ccn2)nc(-c2cnc(C3(O)CCCc4cc(C(=O)N(C)C)ccc43)s2)c1 (single isomer, unassigned) [Example 4C-1, 5-Hydroxy-N,N-dimethyl-5-[5-(4-methyl-6-{[4-(1H-pyrazol-4-yl)pyridin-2-yl]amino}pyridin-2-yl)-1,3-thiazol-2-yl]-5,6,7,8-tetrahydronaphthalene-2-carboxamide]
12 | 0.5 | CCC(CC)c1ccnc(Nc2cc(C)cc(-c3cnc([C@@]4(O)CCCc5cc(C(=O)O)ccc54)s3)n2)c1 [Example 3C, (5R)-5-[5-(6-{[4-(1-ethylpropyl)pyridin-2-yl]amino}-4-methylpyridin-2-yl)-1,3-thiazol-2-yl]-5-hydroxy-5,6,7,8-tetrahydronaphthalene-2-carboxylic acid]
13 | 757 | Cc1cc(Nc2cc(-c3cn[nH]c3)ccn2)nc(-c2cnc(C3(O)CCCc4cc(C(=O)N(C)C)ccc43)s2)c1 (single isomer, unassigned) [Example 4C-2, 5-Hydroxy-N,N-dimethyl-5-[5-(4-methyl-6-{[4-(1H-pyrazol-4-yl)pyridin-2-yl]amino}pyridin-2-yl)-1,3-thiazol-2-yl]-5,6,7,8-tetrahydronaphthalene-2-carboxamide]
14 | 0.16 | CCOc1ccnc(Nc2cc(C)cc(-c3cnc([C@@]4(O)CCCc5cc(C(=O)O)ccc54)s3)n2)c1 [Example 2E, (5R)-5-(5-{6-[(4-ethoxypyridin-2-yl)amino]-4-methylpyridin-2-yl}-1,3-thiazol-2-yl)-5-hydroxy-5,6,7,8-tetrahydronaphthalene-2-carboxylic acid]
15 | 0.8 | Cc1cc(Nc2cc(-c3cn[nH]c3)ccn2)nc(-c2cnc(C3(O)CCCc4cc(C(=O)O)ccc43)s2)c1 (single isomer, unassigned) [Example 4B-2, 5-Hydroxy-5-[5-(4-methyl-6-{[4-(1H-pyrazol-4-yl)pyridin-2-yl]amino}pyridin-2-yl)-1,3-thiazol-2-yl]-5,6,7,8-tetrahydronaphthalene-2-carboxylic acid]
16 | 0.08 | CCCc1ccnc(Nc2cc(C)cc(-c3cnc([C@@]4(O)CCc5cc(C(=O)O)ccc54)s3)n2)c1 [Example 3D, (1R)-1-hydroxy-1-(5-{4-methyl-6-[(4-propylpyridin-2-yl)amino]pyridin-2-yl}-1,3-thiazol-2-yl)-2,3-dihydro-1H-indene-5-carboxylic acid]
17 | 0.06 | CCCOc1ccnc(Nc2cc(C)cc(-c3cnc([C@@]4(O)CCc5cc(C(=O)O)ccc54)s3)n2)c1 [Example 2H, (1R)-1-hydroxy-1-(5-{4-methyl-6-[(4-propoxypyridin-2-yl)amino]pyridin-2-yl}-1,3-thiazol-2-yl)-2,3-dihydro-1H-indene-5-carboxylic acid]
18 | 1.8 | Cc1cc(Nc2cc(C3CCCC(C)C3)ccn2)nc(-c2cnc([C@@]3(O)CCCc4cc(C(=O)O)ccc43)s2)c1 (stereo partly drawn) [Example 3A, (5R)-5-hydroxy-5-[5-(4-methyl-6-{[4-(3-methylcyclohexyl)pyridin-2-yl]amino}pyridin-2-yl)-1,3-thiazol-2-yl]-5,6,7,8-tetrahydronaphthalene-2-carboxylic acid]
19 | 1.16 | Cc1cc(Nc2cc(C(F)(F)F)ccn2)nc(-c2cnc(C3(O)CCCc4cc(C(=O)O)c(Cl)cc43)s2)c1 (single isomer, unassigned) [Example 1E, (R or S)-3-chloro-5-hydroxy-5-[5-(4-methyl-6-{[4-(trifluoromethyl)pyridin-2-yl]amino}pyridin-2-yl)-1,3-thiazol-2-yl]-5,6,7,8-tetrahydronaphthalene-2-carboxylic acid]
20 | 2.38 | COC(=O)c1ccc2c(c1)CCCC2(O)c1ncc(-c2cc(C)cc(Nc3cc(-c4cn[nH]c4)ccn3)n2)s1 (centres unmarked) [Example 4A, Methyl 5-(5-(6-((4-(1H-pyrazol-4-yl)pyridin-2-yl)amino)-4-methylpyridin-2-yl)thiazol-2-yl)-5-hydroxy-5,6,7,8-tetrahydronaphthalene-2-carboxylate]
21 | 2 | Cc1cc(Nc2cc(C(C)F)ccn2)nc(-c2cnc(C3(O)CCCc4cc(C(=O)O)ccc43)s2)c1 (single isomer, unassigned) [Example 8A, 5-(5-(6-((4-(1-Fluoroethyl)pyridin-2-yl)amino)-4-methylpyridin-2-yl)thiazol-2-yl)-5-hydroxy-5,6,7,8-tetrahydronaphthalene-2-carboxylic acid]
22 | 0.42 | CCCc1ccnc(Nc2cc(C)cc(-c3cnc([C@@]4(O)CCCc5cc(C(=O)O)ccc54)s3)n2)c1 [Example 3E, (5R)-5-hydroxy-5-(5-{4-methyl-6-[(4-propylpyridin-2-yl)amino]pyridin-2-yl}-1,3-thiazol-2-yl)-5,6,7,8-tetrahydronaphthalene-2-carboxylic acid]
23 | 4.3 | Cc1cc(Nc2cc(C3CC3)ccn2)nc(-c2cnc(C3(O)CCCc4cc(C(=O)O)c(F)cc43)s2)c1 (single isomer, unassigned) [Example 1G, (R or S)-5-(5-{6-[(4-cyclopropylpyridin-2-yl)amino]-4-methylpyridin-2-yl}-1,3-thiazol-2-yl)-3-fluoro-5-hydroxy-5,6,7,8-tetrahydronaphthalene-2-carboxylic acid]
